Measurements: patent publication US9115137B2, “2,3,4,5-tetrahydro-1H-pyrido[4,3-B]indole compounds and methods of use thereof” (priority 2008, dated 2015)
Like-named read-outs stand apart in the source and are kept apart here.

Legend:
[1] = target: T1, human recombinant dopamine D2L receptor (Homo sapiens, UniProt P14416); experiment: Dopamine D2L radioligand binding ([3H]Spiperone); details: read-out: Dopamine (1 μM) D2L, percent inhibition of specific binding
T1 construct: expressed in transfected cells; host or cells: CHO cells
T1 sequence (P14416 whole entry): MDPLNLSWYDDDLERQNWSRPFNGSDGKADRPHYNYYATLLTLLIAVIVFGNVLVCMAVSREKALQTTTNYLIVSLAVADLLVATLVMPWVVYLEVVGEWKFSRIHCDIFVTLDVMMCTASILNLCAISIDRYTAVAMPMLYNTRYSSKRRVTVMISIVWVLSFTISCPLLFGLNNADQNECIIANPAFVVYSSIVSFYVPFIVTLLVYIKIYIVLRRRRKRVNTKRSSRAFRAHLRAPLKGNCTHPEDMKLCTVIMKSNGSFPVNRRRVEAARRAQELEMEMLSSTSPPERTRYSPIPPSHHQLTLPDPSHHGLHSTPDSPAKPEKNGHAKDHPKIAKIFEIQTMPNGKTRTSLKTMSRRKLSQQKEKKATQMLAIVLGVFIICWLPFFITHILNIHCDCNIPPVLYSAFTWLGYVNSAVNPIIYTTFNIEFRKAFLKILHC
Summary of the method: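 CHO cells expressing the receptor, in 50 mM Tris-HCl pH 7.4 with 1.4 mM ascorbic acid, 0.001% BSA, 150 mM NaCl; 0.16 nM [3H]spiperone, 120 min at 25° C, nonspecific binding with 10 μM haloperidol.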

[2] = target: T2, human recombinant serotonin (5-Hydroxytryptamine) 5-HT6 receptor (Homo sapiens, UniProt P50406); experiment: Serotonin 5-HT6 radioligand binding ([3H]LSD); details: read-out: Serotonin (1 μM) 5-HT6, percent inhibition of specific binding
T2 construct: expressed in transfected cells; host or cells: human HeLa cells
T2 sequence (P50406 whole entry): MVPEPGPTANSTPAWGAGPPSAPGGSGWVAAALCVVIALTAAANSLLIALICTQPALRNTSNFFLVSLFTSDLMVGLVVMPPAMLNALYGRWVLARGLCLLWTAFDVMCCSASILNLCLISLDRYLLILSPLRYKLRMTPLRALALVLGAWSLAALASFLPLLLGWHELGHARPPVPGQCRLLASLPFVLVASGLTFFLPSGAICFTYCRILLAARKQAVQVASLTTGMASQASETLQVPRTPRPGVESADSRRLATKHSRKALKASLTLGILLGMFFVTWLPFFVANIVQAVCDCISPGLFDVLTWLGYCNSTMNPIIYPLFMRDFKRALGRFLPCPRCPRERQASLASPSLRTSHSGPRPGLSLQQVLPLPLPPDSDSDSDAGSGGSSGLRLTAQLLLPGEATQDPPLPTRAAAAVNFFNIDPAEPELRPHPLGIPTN
Summary of the method: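 HeLa membranes expressing receptor, in 50 mM Tris-HCl pH 7.4 with 150 mM NaCl, 2 mM ascorbate, 0.001% BSA, incubated with 1.5 nM [3H]LSD for 120 min at 37 °C. Nonspecific binding defined with 5 μM 5-HT.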

[3] = target: T3, human recombinant adrenergic α2B receptor (Homo sapiens, UniProt P18089); experiment: Adrenergic α2B radioligand binding ([3H]Rauwolscine); details: read-out: Adrenergic (1 μM) α2B, percent inhibition of specific binding
T3 construct: expressed in transfected cells; host or cells: CHO-K1 cells
T3 sequence (P18089 1-450): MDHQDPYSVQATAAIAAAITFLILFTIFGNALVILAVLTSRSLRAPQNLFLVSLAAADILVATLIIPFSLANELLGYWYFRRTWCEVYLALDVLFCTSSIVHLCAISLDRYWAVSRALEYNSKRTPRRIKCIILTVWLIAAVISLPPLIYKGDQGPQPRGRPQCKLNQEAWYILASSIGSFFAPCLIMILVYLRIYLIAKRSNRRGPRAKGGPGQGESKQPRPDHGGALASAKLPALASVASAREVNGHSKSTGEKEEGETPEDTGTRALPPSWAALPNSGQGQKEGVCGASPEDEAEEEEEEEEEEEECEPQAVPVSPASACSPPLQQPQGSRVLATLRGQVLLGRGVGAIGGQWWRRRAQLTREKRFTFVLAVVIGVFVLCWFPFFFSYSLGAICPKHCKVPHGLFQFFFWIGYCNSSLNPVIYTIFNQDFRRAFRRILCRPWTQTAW
Summary of the method: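 CHO-K1 membranes expressing the receptor were incubated with test compounds (1 μM or lower, 1% DMSO) and 2.5 nM [3H]Rauwolscine for 60 min at 25° C in Tris-HCl pH 7.4 with MgCl2, EDTA and BSA. Bound radioactivity was filtered and counted; nonspecific binding was defined with 10 μM Prazosin, giving percent inhibition of specific binding.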

[4] = target: T4, human recombinant adrenergic α2A receptor (Homo sapiens, UniProt P08913); experiment: Adrenergic α2A radioligand binding ([3H]MK-912); details: read-out: Adrenergic (1 μM) α2A, percent inhibition of specific binding
T4 construct: expressed in transfected cells; host or cells: insect Sf9 cells
T4 sequence (P08913 1-465): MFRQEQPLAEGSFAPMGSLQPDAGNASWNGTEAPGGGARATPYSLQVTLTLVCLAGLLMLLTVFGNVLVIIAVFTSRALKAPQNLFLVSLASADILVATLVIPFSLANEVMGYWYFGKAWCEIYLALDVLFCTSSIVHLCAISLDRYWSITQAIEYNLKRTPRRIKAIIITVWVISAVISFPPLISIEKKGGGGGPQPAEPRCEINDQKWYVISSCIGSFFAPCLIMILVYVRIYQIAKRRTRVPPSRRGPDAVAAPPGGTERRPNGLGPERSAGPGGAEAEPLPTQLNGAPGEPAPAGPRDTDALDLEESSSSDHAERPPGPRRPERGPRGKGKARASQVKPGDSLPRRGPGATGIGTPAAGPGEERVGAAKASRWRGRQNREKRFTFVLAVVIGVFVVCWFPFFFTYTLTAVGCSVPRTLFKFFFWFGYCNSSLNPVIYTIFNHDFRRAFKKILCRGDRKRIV
Summary of the method: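 Membranes from Sf9 cells expressing the receptor were incubated with 1 nM [3H]MK-912 for 60 min at 25 °C in Tris-HCl pH 7.4 with MgCl2 and EDTA. Nonspecific binding defined by 10 μM WB-4101; compounds tested at ≤1 μM (1% DMSO), reported as percent inhibition of specific binding.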

[5] = compound at 1 μM, insect Sf9 cells

## CN1CCc2c(c3cc(Cl)ccc3n2CC(=O)NC2CCCCC2)C1 [Compound 60, 2-(8-chloro-1,2,3,4-tetrahydro-2-methylpyrido[4,3-b]indol-5-yl)-N-cyclohexylacetamide]
[1]; compound at 1 μM, CHO cells
  inhibition at 1 µM: 18%
[2]; compound at 1 μM, HeLa cells
  inhibition at 1 µM: 22%
[3]; compound at 1 μM, CHO-K1 cells
  inhibition at 1 µM: 52%
[4]; [5]
  inhibition at 1 µM: 23%

## Cc1ccc2c(c1)c1c(n2CCO)CCN(C)C1 [CD90, 2-(2,8-dimethyl-3,4-dihydro-1H-pyrido[4,3-b]indol-5(2H)-yl)ethanol]
[1]; compound at 1 μM, CHO cells
  inhibition at 1 µM: -8%
[2]; compound at 1 μM, HeLa cells
  inhibition at 1 µM: 7%
[3]; compound at 1 μM, CHO-K1 cells
  inhibition at 1 µM: 61%
[4]; [5]
  inhibition at 1 µM: 22%

## CN1CCc2c(c3cc(Cl)ccc3n2CC(N)=O)C1 [Compound 45, 2-(8-chloro-1,2,3,4-tetrahydro-2-methylpyrido[4,3-b]indol-5-yl)acetamide]
[1]; compound at 1 μM, CHO cells
  inhibition at 1 µM: 7%
[2]; compound at 1 μM, HeLa cells
  inhibition at 1 µM: 5%
[3]; compound at 1 μM, CHO-K1 cells
  inhibition at 1 µM: 18%
[4]; [5]
  inhibition at 1 µM: 16%

## CCOC(=O)CCn1c2c(c3cc(Cl)ccc31)CN(C)CC2 [CD17, ethyl 3-(8-chloro-1,2,3,4-tetrahydro-2-methylpyrido[4,3-b]indol-5-yl)propanoate]
[1]; compound at 1 μM, CHO cells
  inhibition at 1 µM: 22%
[2]; compound at 1 μM, HeLa cells
  inhibition at 1 µM: 101%
[3]; compound at 1 μM, CHO-K1 cells
  inhibition at 1 µM: 99%
[4]; [5]
  inhibition at 1 µM: 87%

## Cc1ccc2c(c1)c1c(n2CCNC(=O)C(C)C)CCN(C)C1 [Compound 61, N-(2-(1,2,3,4-tetrahydro-2,8-dimethylpyrido[4,3-b]indol-5-yl)ethyl)isobutyramide]
[1]; compound at 1 μM, CHO cells
  inhibition at 1 µM: -3%
[2]; compound at 1 μM, HeLa cells
  inhibition at 1 µM: 10%
[3]; compound at 1 μM, CHO-K1 cells
  inhibition at 1 µM: 70%
[4]; [5]
  inhibition at 1 µM: 46%

## CN1CCc2c(c3cc(Cl)ccc3n2CC(=O)O)C1 [CD46, 2-(8-chloro-1,2,3,4-tetrahydro-2-methylpyrido[4,3-b]indol-5-yl)acetic acid]
[1]; compound at 1 μM, CHO cells
  inhibition at 1 µM: 3%
[2]; compound at 1 μM, HeLa cells
  inhibition at 1 µM: 39%
[3]; compound at 1 μM, CHO-K1 cells
  inhibition at 1 µM: 35%
[4]; [5]
  inhibition at 1 µM: 13%

## Cc1ccc2c(c1)c1c(n2CCNC(=O)c2ccncc2)CCN(C)C1 [Compound 50, N-(2-(1,2,3,4-tetrahydro-2,8-dimethylpyrido[4,3-b]indol-5-yl)ethyl)isonicotinamide]
[1]; compound at 1 μM, CHO cells
  inhibition at 1 µM: 7%
[2]; compound at 1 μM, HeLa cells
  inhibition at 1 µM: -1%
[3]; compound at 1 μM, CHO-K1 cells
  inhibition at 1 µM: 70%
[4]; [5]
  inhibition at 1 µM: 38%

## Cc1ccc2c(c1)c1c(n2CCNC(=O)C2CCCC2)CCN(C)C1 [Compound 68, N-(2-(1,2,3,4-tetrahydro-2,8-dimethylpyrido[4,3-b]indol-5-yl)ethyl)cyclopentanecarboxamide]
[1]; compound at 1 μM, CHO cells
  inhibition at 1 µM: 1%
[2]; compound at 1 μM, HeLa cells
  inhibition at 1 µM: 15%
[3]; compound at 1 μM, CHO-K1 cells
  inhibition at 1 µM: 84%
[4]; [5]
  inhibition at 1 µM: 62%

## Cc1ccc2c(c1)c1c(n2CCC(=O)NC(C)(C)C)CCN(C)C1 [Compound 28]
[1]; compound at 1 μM, CHO cells
  inhibition at 1 µM: -1%
[2]; compound at 1 μM, HeLa cells
  inhibition at 1 µM: 47%
[3]; compound at 1 μM, CHO-K1 cells
  inhibition at 1 µM: 85%
[4]; [5]
  inhibition at 1 µM: 44%

## CN1CCc2c(c3cc(Cl)ccc3n2CCBr)C1 [CD88, 5-(2-bromoethyl)-8-chloro-2-methyl-2,3,4,5-tetrahydro-1H-pyrido[4,3-b]indole]
[1]
  inhibition at 1 µM: 27%
[2]
  inhibition at 1 µM: 87%
[3]
  inhibition at 1 µM: 104%
[4]
  inhibition at 1 µM: 80%

## Cc1ccc2c(c1)c1c(n2CCC#N)CCN(C)C1 [CD92, 3-(2,8-dimethyl-3,4-dihydro-1H-pyrido[4,3-b]indol-5(2H)-yl)propanenitrile]
[1]; compound at 1 μM, CHO cells
  inhibition at 1 µM: 3%
[2]; compound at 1 μM, HeLa cells
  inhibition at 1 µM: 47%
[3]; compound at 1 μM, CHO-K1 cells
  inhibition at 1 µM: 94%
[4]; [5]
  inhibition at 1 µM: 76%

## CN1CCc2c(c3cc(Cl)ccc3n2CCC(=O)OCc2ccccc2)C1 [Compound 19, benzyl 3-(8-chloro-1,2,3,4-tetrahydro-2-methylpyrido[4,3-b]indol-5-yl)propanoate]
[1]; compound at 1 μM, CHO cells
  inhibition at 1 µM: 31%
[2]; compound at 1 μM, HeLa cells
  inhibition at 1 µM: 100%
[3]; compound at 1 μM, CHO-K1 cells
  inhibition at 1 µM: 106%
[4]; [5]
  inhibition at 1 µM: 86%

## Cc1ccc2c(c1)c1c(n2CCC(N)=O)CCN(C)C1 [Compound 46, 3-(1,2,3,4-tetrahydro-2,8-dimethylpyrido[4,3-b]indol-5-yl)propanamide]
[1]; compound at 1 μM, CHO cells
  inhibition at 1 µM: 4%
[2]; compound at 1 μM, HeLa cells
  inhibition at 1 µM: 11%
[3]; compound at 1 μM, CHO-K1 cells
  inhibition at 1 µM: 46%
[4]; [5]
  inhibition at 1 µM: 44%

## CN1CCc2c(c3cc(Cl)ccc3n2CC(=O)OC2CCCC2)C1 [Compound 15]
[1]; compound at 1 μM, CHO cells
  inhibition at 1 µM: 26%
[2]; compound at 1 μM, HeLa cells
  inhibition at 1 µM: 96%
[3]; compound at 1 μM, CHO-K1 cells
  inhibition at 1 µM: 95%
[4]; [5]
  inhibition at 1 µM: 67%
